This note sets out measurements from US20090281054A1, “COMPOSITIONS AND METHODS COMPRISING CAPURAMYCIN ANALOGUES” (priority 2008, published 2009).

Values after ≈ are worked out from the molar mass of the structure shown. Read-outs that look alike come from different tables or passages of the source.

Experiment [1] concerns M. smegmatis (MSMG; MC2155). Put plainly: MIC by microdilution method in 7H9 broth. Format: cell-based. Conditions: Mycolicibacterium smegmatis, MC2155|MC^2155; MSMG MC^2155; 72 hr; read-out: MIC.
Experiment [2] deals with M. abscessus (MAB; ATCC 700869). Briefly: MIC by microdilution method in 7H9 broth. Format: cell-based. Conditions: Mycobacteroides abscessus, ATCC700869; MAB 700869; read-out: MIC.
Experiment [3] deals with M. kansaii (MKN; ATCC12478 & 35775). Put plainly: MIC by microdilution method in 7H9 broth. The note with it: Mycobacterium kansasii, read-out: MIC. Format: cell-based, M. kansasii.
Another experiment deals with M. avium complex (MAC). Put plainly: MIC by microdilution method in 7H9 broth. It counts as cell-based. The note with it: Mycobacterium avium; for MIC90: value in square brackets, read-out: MIC90.
Another experiment deals with MAC. Briefly: Synergy by checkerboard titration (microdilution). Format: cell-based, M. avium complex. Conditions: for MIC: Mycobacterium avium, drug alone.
In a further experiment the target is translocase I (Escherichia coli, UniProt P0A6W3). Briefly: IC50 against translocase I. It counts as biochemical.
translocase I, sequence (P0A6W3 whole entry): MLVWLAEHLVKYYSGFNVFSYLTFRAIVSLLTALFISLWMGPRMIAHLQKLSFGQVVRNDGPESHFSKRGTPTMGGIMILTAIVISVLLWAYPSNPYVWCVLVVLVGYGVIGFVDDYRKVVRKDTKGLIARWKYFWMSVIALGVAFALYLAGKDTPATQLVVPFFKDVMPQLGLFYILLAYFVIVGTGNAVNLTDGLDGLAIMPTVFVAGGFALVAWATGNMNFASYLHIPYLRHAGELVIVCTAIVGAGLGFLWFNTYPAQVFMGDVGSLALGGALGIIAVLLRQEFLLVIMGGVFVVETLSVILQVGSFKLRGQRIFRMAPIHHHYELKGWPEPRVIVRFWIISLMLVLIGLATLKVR
The test system of a further experiment is MTB in J774A.1 cells. Briefly: Intracellular activity of SQ641 with efflux pump blockers. Format: cell-based, Mycobacterium tuberculosis. The note with it: J774A.1 cells; VE and CsA at 10 μM.
[4] abbreviates: ATCC 12478 / ATCC 35775, MKN ATCC35775.
[5] abbreviates: MAC strain NIH C1-1, read-out: MIC.
Where [6] appears, read: MAC strain NIH C1-2, read-out: MIC.
[7] abbreviates: MAC strain NIH C1-3, read-out: MIC.
Setting [8] is: MAC strain NIH C1-4, read-out: MIC.
Where [9] appears, read: 336 h, MAC isolates, 2 wk, read-out: MIC (range).

As for `NCC[C@H](O)C(=O)N[C@@H]1C[C@H](N)[C@@H](O[C@H]2O[C@H](CN)[C@@H](O)[C@H](O)[C@H]2O)[C@H](O)[C@H]1O[C@H]1O[C@H](CO)[C@@H](O)[C@H](N)[C@H]1O` [AMK, amikacin, reference compound], the MIC amounted to 0.5 µg/mL (≈ 0.854 µM) in experiment [1]; 4 µg/mL (≈ 6.83 µM) in experiment [2]; 2 µg/mL (≈ 3.42 µM) in experiment [3] (setting [4]); 2 µg/mL (≈ 3.42 µM) in experiment [3] (MKN ATCC12478); 8 µg/mL (≈ 13.7 µM) in the experiment with M. avium complex (MAC) (MAC strain 100, read-out: MIC); 2 µg/mL (≈ 3.42 µM) in the experiment with M. avium complex (MAC) (MAC strain 101, read-out: MIC). Moreover, the MIC with M. avium complex (MAC) (MAC strain 104, read-out: MIC) was 16 µg/mL (≈ 27.3 µM); in the experiment with M. avium complex (MAC) (MAC strain 109, read-out: MIC) it was 1 µg/mL (≈ 1.71 µM); in the experiment with M. avium complex (MAC) (MAC strain A5, read-out: MIC), 4 µg/mL (≈ 6.83 µM); in the experiment with M. avium complex (MAC) (MAC strain JSH1, read-out: MIC) it was 8 µg/mL (≈ 13.7 µM); in the experiment with M. avium complex (MAC) (setting [5]), 8 µg/mL (≈ 13.7 µM); in the experiment with M. avium complex (MAC) (setting [6]) it was 32 µg/mL (≈ 54.6 µM). The MIC in the experiment with M. avium complex (MAC) (setting [7]) was 8 µg/mL (≈ 13.7 µM); with M. avium complex (MAC) (setting [8]), 4 µg/mL (≈ 6.83 µM); in the experiment with MAC (MAC A5), 2 µg/mL; in the experiment with MAC (MAC JSH1), 16 µg/mL; in the experiment on MAC (MAC NIH C1-1) it was 8 µg/mL. In addition, the MIC90 in the experiment with M. avium complex (MAC) (MAC isolates) was 16 µg/mL (≈ 27.3 µM). In addition, the “MIC Combination” value in the experiment with MAC (MAC A5, combination SQ641 + AMK) was 0.5 µg/mL; in the experiment with MAC (MAC JSH1, combination SQ641 + AMK), 8.0 µg/mL; with MAC (MAC NIH C1-1, combination SQ641 + AMK), 4.0 µg/mL.

`CO[C@H]1[C@@H](O)[C@H](n2ccc(=O)[nH]c2=O)O[C@@H]1[C@@H](O[C@H]1OC(C(=O)Nc2ccc(F)c(C(F)(F)F)c2)=C[C@H](O)[C@@H]1O)C(N)=O` [RKS2137] showed an IC50 at translocase I of 12.9 nM. Moreover, the MIC was 4 µg/mL (≈ 6.45 µM) in experiment [1]; 8 µg/mL (≈ 12.9 µM) in experiment [2]; 2 µg/mL (≈ 3.22 µM) in experiment [3] (setting [4]); above 32 µg/mL in experiment [3] (MKN ATCC12478); 0.5 to 16 µg/mL (≈ 0.806 to 25.8 µM) in the experiment on M. avium complex (MAC) (setting [9]); 2 µg/mL (≈ 3.22 µM) in the experiment on M. avium complex (MAC) (MAC strain 100, read-out: MIC). The MIC came out at 1 µg/mL (≈ 1.61 µM) in the experiment on M. avium complex (MAC) (MAC strain 101, read-out: MIC); 1 µg/mL (≈ 1.61 µM) in the experiment on M. avium complex (MAC) (MAC strain 104, read-out: MIC); 0.5 µg/mL (≈ 0.806 µM) in the experiment with M. avium complex (MAC) (MAC strain 109, read-out: MIC); 1 µg/mL (≈ 1.61 µM) in the experiment with M. avium complex (MAC) (MAC strain A5, read-out: MIC); 1 µg/mL (≈ 1.61 µM) in the experiment with M. avium complex (MAC) (MAC strain JSH1, read-out: MIC); 8 µg/mL (≈ 12.9 µM) with M. avium complex (MAC) (setting [5]). Moreover, the MIC with M. avium complex (MAC) (setting [6]) turned out to be 2 µg/mL (≈ 3.22 µM); in the experiment on M. avium complex (MAC) (setting [7]) it was 16 µg/mL (≈ 25.8 µM); in the experiment on M. avium complex (MAC) (setting [8]), 2 µg/mL (≈ 3.22 µM). The MIC90 in the experiment on M. avium complex (MAC) (MAC isolates) is 8 µg/mL (≈ 12.9 µM).

As to `CO[C@H]1[C@@H](O)[C@H](n2ccc(=O)[nH]c2=O)O[C@@H]1[C@@H](O[C@H]1OC(C(=O)Nc2ccc(C(F)(F)F)cc2)=C[C@H](O)[C@@H]1O)C(N)=O` [RKS2033], on translocase I, the “IC50 against translocase I” value was found to be 0.03 µg/mL (≈ 0.0498 µM). In addition, the MIC is 4 µg/mL (≈ 6.64 µM) in experiment [1]; 2 µg/mL (≈ 3.32 µM) in experiment [2]; 2 µg/mL (≈ 3.32 µM) in experiment [3] (setting [4]); 16 µg/mL (≈ 26.6 µM) in experiment [3] (MKN ATCC12478); 1 to 8 µg/mL (≈ 1.66 to 13.3 µM) in the experiment with M. avium complex (MAC) (setting [9]); 2 µg/mL (≈ 3.32 µM) with M. avium complex (MAC) (MAC strain 100, read-out: MIC). For the same molecule, the MIC turned out to be 2 µg/mL (≈ 3.32 µM) with M. avium complex (MAC) (MAC strain 101, read-out: MIC); 1 µg/mL (≈ 1.66 µM) with M. avium complex (MAC) (MAC strain 104, read-out: MIC); 1 µg/mL (≈ 1.66 µM) in the experiment with M. avium complex (MAC) (MAC strain 109, read-out: MIC); 2 µg/mL (≈ 3.32 µM) with M. avium complex (MAC) (MAC strain A5, read-out: MIC); 2 µg/mL (≈ 3.32 µM) in the experiment with M. avium complex (MAC) (MAC strain JSH1, read-out: MIC); 4 µg/mL (≈ 6.64 µM) with M. avium complex (MAC) (setting [5]). In addition, the MIC stood at 2 µg/mL (≈ 3.32 µM) with M. avium complex (MAC) (setting [6]), 8 µg/mL (≈ 13.3 µM) in the experiment with M. avium complex (MAC) (setting [7]) and 2 µg/mL (≈ 3.32 µM) in the experiment on M. avium complex (MAC) (setting [8]). In addition, in the experiment on M. avium complex (MAC) (MAC isolates), the MIC90 was 4 µg/mL (≈ 6.64 µM).

For the molecule `CCCN(CCC)S(=O)(=O)c1ccc(C(=O)O)cc1` [PB, probenecid, reference compound], the “Effect of efflux pump blocker on intracellular activity of SQ641 against MTB” value in the experiment on MTB in J774A.1 cells is on record as “only moderate effects”.

Take `CC[C@H]1OC(=O)[C@H](C)[C@@H](O[C@H]2C[C@@](C)(OC)[C@@H](O)[C@H](C)O2)[C@H](C)[C@@H](O[C@@H]2O[C@H](C)C[C@H](N(C)C)[C@H]2O)[C@](C)(OC)C[C@@H](C)C(=O)[C@H](C)[C@@H](O)[C@]1(C)O` [CLA, clarithromycin, reference compound]: the MIC is 2 µg/mL (≈ 2.67 µM) in experiment [1]; above 32 µg/mL in experiment [2]; 0.25 µg/mL (≈ 0.334 µM) in experiment [3] (setting [4]); 0.25 µg/mL (≈ 0.334 µM) in experiment [3] (MKN ATCC12478); 0.062 to 32 µg/mL (≈ 0.0829 to 42.8 µM) with M. avium complex (MAC) (setting [9]); 0.25 µg/mL (≈ 0.334 µM) in the experiment with M. avium complex (MAC) (MAC strain 100, read-out: MIC). Besides, the MIC was 0.125 µg/mL (≈ 0.167 µM) with M. avium complex (MAC) (MAC strain 101, read-out: MIC); 0.5 µg/mL (≈ 0.668 µM) in the experiment with M. avium complex (MAC) (MAC strain 104, read-out: MIC); 0.062 µg/mL (≈ 0.0829 µM) in the experiment with M. avium complex (MAC) (MAC strain 109, read-out: MIC); 0.125 µg/mL (≈ 0.167 µM) in the experiment on M. avium complex (MAC) (MAC strain A5, read-out: MIC); 2 µg/mL (≈ 2.67 µM) in the experiment on M. avium complex (MAC) (MAC strain JSH1, read-out: MIC); 1 µg/mL (≈ 1.34 µM) in the experiment on M. avium complex (MAC) (setting [5]). Further, the MIC in the experiment with M. avium complex (MAC) (setting [6]) came out at 0.25 µg/mL (≈ 0.334 µM); in the experiment with M. avium complex (MAC) (setting [7]) it was 32 µg/mL (≈ 42.8 µM); in the experiment with M. avium complex (MAC) (setting [8]), 1 µg/mL (≈ 1.34 µM); in the experiment with MAC (MAC A5), 0.125 µg/mL; in the experiment on MAC (MAC JSH1), 1 µg/mL; in the experiment with MAC (MAC NIH C1-1), 2 µg/mL. The MIC90 in the experiment on M. avium complex (MAC) (MAC isolates) is 2 µg/mL (≈ 2.67 µM). Besides, the “MIC Combination” value in the experiment on MAC (MAC A5, combination SQ641 + CLA) amounted to 0.031 µg/mL; in the experiment on MAC (MAC JSH1, combination SQ641 + CLA) it was 1 µg/mL; in the experiment on MAC (MAC NIH C1-1, combination SQ641 + CLA) it was 2.0 µg/mL.

As for `Cc1ccc(C)c(OCCCC(C)(C)C(=O)O)c1` [GF, gemfibrozil, reference compound], in the experiment on MTB in J774A.1 cells, the “Effect of efflux pump blocker on intracellular activity of SQ641 against MTB” value was “only moderate effects”.
